Results as given in patent publication US6107070A, “Human manganese superoxide dismutase proteins” (University of Florida, priority 1998, dated 2000).
Residue numbers refer to the chain shown, from its start.

Key:
Format in all cases: biochemical
[1] = target: T1, human manganese superoxide dismutase (hMn SOD), wild type, SEQ ID NO:2 (Homo sapiens, UniProt P04179); experiment: Decay of superoxide catalyzed by wild-type hMnSOD, pulse radiolysis; conditions: obtained from Table 3 data and eqs 5-9 of Bull et al. (1991)
T1 construct: where it is then cleaved off leaving the mature protein
T1 sequence (P04179 25-222): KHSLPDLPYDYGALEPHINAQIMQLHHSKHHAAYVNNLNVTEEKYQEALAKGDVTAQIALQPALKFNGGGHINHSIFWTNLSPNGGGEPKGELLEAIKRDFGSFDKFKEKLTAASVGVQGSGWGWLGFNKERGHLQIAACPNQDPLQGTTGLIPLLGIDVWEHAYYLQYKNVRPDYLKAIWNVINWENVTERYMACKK
Procedure: (§1) Experiments were carried out at the Center for Fast Kinetics Research at the University of Texas at Austin using a 4-Mev van der Graaff accelerator. A single high-dose electron pulse was used to generate superoxide radical anions from oxygen in acqueous solutions containing 10 mM sodium formate as hydroxyl radical scavenger (Schwartz, 1981) and 50 μM EDTA in addition to buffer and enzyme. All pulse radiolysis experiments were carried out at 20 ° C. The dismutation of O2^- was followed spectrophotometrically from its absorbance at 250 nm (ε=2000M^1 cm^1, Rabani and Nielson, 1969) with a path length of 2.5 cm. Progress curves for each set of 6 to 9 experiments were averaged. Exposure to ultraviolet radiation was minimized by opening a mechanical shutter a fraction of a second before each pulse.

[2] = target: T2, human manganese superoxide dismutase (hMn SOD) variant Y34F (Tyr 34 replaced by Phe) (Homo sapiens, UniProt P04179, Y58F); experiment: Decay of superoxide catalyzed by Y34F hMnSOD, pulse radiolysis
T2 construct: as a mature protein tagged with an extra Met at the amino terminus; made in house; host or cells: E. coli QC774 (SodA/SodB mutant), pTrc99A
T2 sequence (P04179 25-222 Y58F): T1 sequence (P04179 25-222) with Y34F
Procedure: as §1
The kinetic mechanism of FIG. 8 used to describe the wild-type MnSOD can also describe catalysis by Y34F Mn SOD (FIG. 7), as shown by pulse radiolysis. […] In this stimulation, the breakdown of the enzyme-substrate complex for enzyme in the reduced state, represented by k3 in the scheme of FIG. 8, is much slower for Y34F compared with wild-type, whereas the values of k3 are the same for both enzymes. […] The rate constants in Y34F for actual formation of the dead-end complex itself, k5 and k5 are quite similar to those for wild-type.

[3] = target: T3, human manganese superoxide dismutase (hMn SOD) variant Y34F (Tyr34Phe) (Homo sapiens, UniProt P04179, Y58F); experiment: Disproportionation of superoxide by Y34F hMnSOD, Example 3 (Tables 4 and 5), 20° C.
T3 construct: as a mature protein tagged with an extra Met at the amino terminus; made in house; host or cells: E. coli QC774 (SodA/SodB mutant), pTrc99A
T3 sequence (P04179 25-222 Y58F): T1 sequence (P04179 25-222) with Y34F
Procedure: Experiments were based on the stabilization of KO2 in aprotic solvent and the subsequent large dilution of this solution by an aqueous solution of enzyme in a stopped-flow apparatus, as described by McClune and Fee (1978). KO2 was dissolved in a mixture of dimethyl sulfoxide and […] (2:1 by volume; Aldrich, spectrophotometric grade) with solubility of KO2 enhanced with 18-crown-6 (Valentine and Curtis, 1975). The stopped-flow spectrophotometer (Kinetic Instruments, Ann Arbor, Mich.) was capable of efficient mixing of this solution with an acqueous solution of enzyme in buffer with a dead time between 1.5 and 2.0 ms. One drive syringe (capacity 50 μl) contained the aprotic solution of O2. This was diluted fifty-fold by the contents of a second syringe (capacity 2.5 ml) which contained enzyme, EDTA, and buffer. The decay of superoxide in initial velocity experiments and progress curves was monitored by its absorption at 250 to 300 nm. Stopped-flow experiments were carried out at […]. Four or more kinetic traces were averaged to reduce noise. Steady-state parameters were obtained by least-squares analysis of such data (Leatherbarrow (1987) "Enzfitter: a nonlinear regression data analysis program for the IBM PC" Elsevier BIOSOFT, Cambridge).
In the present study, several novel hMnSOD proteins containing substitutions of His 30 (referring to the amino acid sequence of SEQ ID NO:2) were prepared by PCR site directed mutagenesis and purified by column chromatography, as described in the Materials and Methods section above, and as also described by Hsu et al. (1996) J. Biol. Chem. 271: 1768; and Hsieh et al. (1998) Biochemistry 37: 4731. In particular, His 30 was substituted with each of Ala, Asn, Ser and Gln. The resulting novel hMnSOD proteins containing a His 30 substitution were then assayed for enzymatic activity and product inhibition at 20° C. by measuring the absorbance of superoxide at 250 nm using stopped-flow spectrophotometry, as described above in the Materials and Methods section. […]

[4] = target: T4, human manganese superoxide dismutase (hMn SOD) variant H30K (Homo sapiens, UniProt P04179, H54K); experiment: Disproportionation of superoxide by H30K hMnSOD, 20° C.; conditions: Table 4; pH 9.4, 20° C.
T4 construct: as a mature protein tagged with an extra Met at the amino terminus; made in house
T4 sequence (P04179 25-222 H54K): T1 sequence (P04179 25-222) with H30K

[5] = Table 1, pulse radiolysis, 20° C., pH 9.6 (Guan et al., 1997)
[6] = Table 3, KINSIM fit to pulse radiolysis data, 20° C., pH 9.6
[7] = Table 4, 20° C., pH 9.4 per footnote

[O]O [superoxide]
Km [1]: 50 µM
kcat [2, 5]: 3.3 ms^-1
kcat /km [2, 5]: 8.7e+08 M⁻¹ s⁻¹
k1 [2, 6]: 1000 s⁻¹
k2 [2, 6]: 5000 s⁻¹
k4 [2, 6]: 1000 M⁻¹ s⁻¹
k5 [2, 6]: 200 s⁻¹
k-1 [2, 6]: 2e+09 M⁻¹ s⁻¹
k-3 [2, 6]: 2e+09 M⁻¹ s⁻¹
k-4 [2, 6]: 10000 s⁻¹
k-5 [2, 6]: 2 × 10^4
kcat /km (diffusion controlled) ([2]; approximate value): ~10^9 M^-1 s^-1
Km ([2]; obtained from Table 3 data and eqs 5-9 of Bull et al. (1991)): 4 µM
kcat [3, 7]: 3.3 ms^.1
kcat /Km [3, 7]: 870 μM^.1 S^.1
ko /[E] (rate constant for the zero-order region of catalysis) ([3]; Table 5, pH 9.6, 20° C.): 88 S^.1
kcat [4]: 0.74 ms^.1
kcat /Km [4]: 0.80 μM^.1 S^.1
